Patent publication US20040127439A1, “Introduction of the wld gene for prevention of axonal degeneration in neurological diseases” (priority 2004, published 2004)

Key:
Wld^S cultured neurites = test: Vincristine neuropathy in Wld^S mouse DRG cultures; type: cell-based; details: for halo area at day 10 compared to day 0 / length of longest axons at day 10 compared to day 0: Wld^S
Method: DRGs were allowed to mature for 5 days to create a lush halo of neurites. […] This date was defined as treatment day 0. […] Cultures were monitored and imaged on day 0, day 4, day 8 and day 10 of treatment using video microscopy.
Measures of axonal survival were the length of longest remaining axon, and the area of remaining DRG halo, as determined by serial phase-contrast video microscopy (FIG. 6). The axonal length was measured from the center of the DRG to the visible distal end of the axon. […] Data were thus analyzed as percent of day 0.

rat DRG cultures = test: Resistance to vincristine-induced axonal degeneration in adenovirus-infected rat DRG cultures; type: cell-based
Method: Adenovirus was generated as previously described. Briefly, the modified transfer vector was linearized with NheI for preparation of the recombinant adenovirus. […] The transfected 293A cells were trypsinized and diluted with 293A cells, seeded into the 96-well tissue culture plates, and kept at 37 C, 5% CO2 for several days. […] Recombinant adenoviruses were purified from wild type viruses by the limiting dilution method. Adenovirus titers were determined by TCID-50 (Tissue Culture Infectious Dose).
Cultures had extended neurites for 6 days before introduction of the transgene. Transgene expression, indicated by GFP fluorescence, was monitored by fluorescence microscopy.
The methods for DRG culture have been previously described. […] Suppression of Schwann cell growth was accomplished by addition of fluorodeoxyuridine and uridine (both at a dose of 10^−6M, Sigma) on days 2-5.
E15 DRG were grown in culture for 6 days and then exposed to adenovirus (with or without the Wld^Stransgene) as described above. […] Length and area measurements were performed and analyzed as described above for mouse cultures.

[1] = Day 4, continuous 0.01 μM vincristine
[2] = Day 8, continuous 0.01 μM vincristine
[3] = Day 10, continuous 0.01 μM vincristine

## Vincristine sulfate salt
Wld^S cultured neurites; vincristine 0.01 μM
  halo area at day 10 compared to day 0: 64.75±2.62%
  length of longest axons at day 10 compared to day 0: 84.33±2.54%
Wld^S cultured neurites; vincristine 0.1 μM
  halo area at day 10 compared to day 0: 7.92±3.83%
  length of longest axons at day 10 compared to day 0: 10.17±3.22%
Wld^S cultured neurites; vincristine 0.01 μM, Day 4, Wld^S
  Area of DRG Halo: 7.27 ± 0.51 mm^2
Wld^S cultured neurites; vincristine 0.01 μM, Day 8, Wld^S
  Area of DRG Halo: 6.50 ± 0.56 mm^2
Wld^S cultured neurites; vincristine 0.01 μM, Day 10, Wld^S
  Area of DRG Halo: 5.60 ± 0.51 mm^2
Wld^S cultured neurites; vincristine 0.02 μM, Day 4, Wld^S
  Area of DRG Halo: 5.95 ± 0.72 mm^2
Wld^S cultured neurites; vincristine 0.02 μM, Day 8, Wld^S
  Area of DRG Halo: 3.39 ± 0.64 mm^2
Wld^S cultured neurites; vincristine 0.02 μM, Day 10, Wld^S
  Area of DRG Halo: 2.53 ± 0.59 mm^2
Wld^S cultured neurites; vincristine 0.05 μM, Day 4, Wld^S
  Area of DRG Halo: 4.17 ± 0.45 mm^2
Wld^S cultured neurites; vincristine 0.05 μM, Day 8, Wld^S
  Area of DRG Halo: 1.63 ± 0.48 mm^2
Wld^S cultured neurites; vincristine 0.05 μM, Day 10, Wld^S
  Area of DRG Halo: 0.80 ± 0.36 mm^2
Wld^S cultured neurites; vincristine 0.1 μM, Day 4, Wld^S
  Area of DRG Halo: 5.30 ± 0.86 mm^2
Wld^S cultured neurites; vincristine 0.1 μM, Day 8, Wld^S
  Area of DRG Halo: 2.00 ± 0.66 mm^2
Wld^S cultured neurites; vincristine 0.1 μM, Day 10, Wld^S
  Area of DRG Halo: 0.59 ± 0.28 mm^2
Rat DRG cultures; [1]
  Area of DRG halo (% of Day 0): 30.43 ± 5.05 % of Day 0
  Length of axons (% of Day 0): 48.79 ± 4.72 % of Day 0
Rat DRG cultures; [2]
  Area of DRG halo (% of Day 0): 13.23 ± 1.52 % of Day 0
  Length of axons (% of Day 0): 35.86 ± 3.76 % of Day 0
Rat DRG cultures; [3]
  Area of DRG halo (% of Day 0): 9.78 ± 2.22 % of Day 0
  Length of axons (% of Day 0): 26.28 ± 4.08 % of Day 0
